We go through 34 compounds from US20240239766A1, “3-AMINO PIPERIDYL SODIUM CHANNEL INHIBITORS” (Genentech, Inc., priority 2021, published 2024).

Structures can show the parent of a compound that is named as a salt.

This assay has as its target hNav1.7 (Homo sapiens (Human), UniProt Q15858). In words: Patch voltage clamp electrophysiology assay (EP), Syncropatch 384PE, CHO cells expressing Nav1.7. The assay is classed as cell-based. To be noted: holding potential −50 mV; 7.5 min compound incubation; read-out: EP SP hNav1.7 EVO (IC50).

Chain of hNav1.7 (Q15858 other isoform, or with tags, fused parts or gaps): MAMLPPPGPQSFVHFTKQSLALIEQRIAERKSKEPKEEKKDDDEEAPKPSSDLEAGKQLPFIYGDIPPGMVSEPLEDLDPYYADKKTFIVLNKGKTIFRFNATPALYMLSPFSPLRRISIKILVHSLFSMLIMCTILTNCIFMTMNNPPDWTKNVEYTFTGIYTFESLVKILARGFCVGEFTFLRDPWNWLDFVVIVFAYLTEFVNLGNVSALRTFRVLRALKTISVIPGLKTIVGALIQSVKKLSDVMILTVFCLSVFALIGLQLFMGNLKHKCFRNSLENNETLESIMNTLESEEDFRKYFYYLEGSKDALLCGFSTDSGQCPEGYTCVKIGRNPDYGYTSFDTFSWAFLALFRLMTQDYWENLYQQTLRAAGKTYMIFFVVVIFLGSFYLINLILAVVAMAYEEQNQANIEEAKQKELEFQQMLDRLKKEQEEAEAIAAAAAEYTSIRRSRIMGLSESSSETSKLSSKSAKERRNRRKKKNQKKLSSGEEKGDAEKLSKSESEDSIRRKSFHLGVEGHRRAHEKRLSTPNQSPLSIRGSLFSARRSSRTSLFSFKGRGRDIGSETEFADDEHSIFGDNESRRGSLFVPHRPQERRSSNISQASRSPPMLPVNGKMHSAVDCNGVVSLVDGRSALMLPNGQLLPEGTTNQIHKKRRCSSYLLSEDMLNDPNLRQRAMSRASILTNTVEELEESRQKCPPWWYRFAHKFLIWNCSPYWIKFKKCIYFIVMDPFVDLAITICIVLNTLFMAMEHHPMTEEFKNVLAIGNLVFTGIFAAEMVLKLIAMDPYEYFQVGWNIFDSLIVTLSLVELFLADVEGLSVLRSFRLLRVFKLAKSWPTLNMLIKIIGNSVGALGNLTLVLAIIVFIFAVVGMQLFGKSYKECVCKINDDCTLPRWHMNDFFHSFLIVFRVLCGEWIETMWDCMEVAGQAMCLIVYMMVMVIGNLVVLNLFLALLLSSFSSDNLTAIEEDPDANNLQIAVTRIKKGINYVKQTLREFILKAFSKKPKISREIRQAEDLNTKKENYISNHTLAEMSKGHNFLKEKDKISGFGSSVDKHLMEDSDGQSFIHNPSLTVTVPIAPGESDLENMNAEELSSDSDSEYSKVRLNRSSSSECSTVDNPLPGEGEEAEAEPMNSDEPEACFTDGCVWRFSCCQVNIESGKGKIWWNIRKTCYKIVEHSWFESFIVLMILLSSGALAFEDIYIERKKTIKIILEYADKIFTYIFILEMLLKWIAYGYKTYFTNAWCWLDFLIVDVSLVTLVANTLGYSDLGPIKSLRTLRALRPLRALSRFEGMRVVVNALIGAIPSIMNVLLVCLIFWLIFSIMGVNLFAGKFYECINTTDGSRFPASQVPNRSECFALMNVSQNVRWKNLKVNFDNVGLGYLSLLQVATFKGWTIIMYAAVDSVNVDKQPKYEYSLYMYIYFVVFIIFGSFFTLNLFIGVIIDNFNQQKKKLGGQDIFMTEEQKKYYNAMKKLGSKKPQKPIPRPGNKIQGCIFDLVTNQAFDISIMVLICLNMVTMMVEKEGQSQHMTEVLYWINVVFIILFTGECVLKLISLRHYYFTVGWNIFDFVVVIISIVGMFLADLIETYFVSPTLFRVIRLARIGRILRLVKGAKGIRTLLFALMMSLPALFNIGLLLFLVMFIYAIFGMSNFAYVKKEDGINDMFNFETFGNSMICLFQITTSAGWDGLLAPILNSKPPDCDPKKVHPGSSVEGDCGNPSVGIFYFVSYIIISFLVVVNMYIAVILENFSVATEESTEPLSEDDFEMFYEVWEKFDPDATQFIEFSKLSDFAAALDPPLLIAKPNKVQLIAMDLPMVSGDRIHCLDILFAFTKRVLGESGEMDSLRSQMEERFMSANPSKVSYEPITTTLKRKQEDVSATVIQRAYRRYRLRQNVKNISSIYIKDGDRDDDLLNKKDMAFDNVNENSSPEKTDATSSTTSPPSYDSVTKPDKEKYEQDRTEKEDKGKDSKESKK

As to `Cc1cc(N2CCC[C@@](CCc3cccc(C(F)(F)F)c3)(N(C)C)C2)cc(F)c1S(=O)(=O)Nc1ccncn1` [Example 10, (R)-4-(3-(Dimethylamino)-3-(3-(trifluoromethyl)-phenethyl)piperidin-1-yl)-2-fluoro-6-methyl-N-(pyrimidin-4-yl)benzenesulfonamide], the IC50 turned out to be 2.66 nM.
`CN(C)[C@@]1(CCc2cccc(C(F)(F)F)c2)CCCN(c2cc(F)c(S(=O)(=O)Nc3ccncn3)c(Cl)c2)C1` (single isomer, unassigned) [Example 17]: the IC50 stood at 314 nM.
The result for `CN([C@H]1CCOC1)[C@]1(CCc2cccc(C(F)(F)F)c2)CCCN(c2cc(F)c(S(=O)(=O)Nc3ccncn3)c(F)c2)C1` (single isomer, unassigned) [Example 83] reads 1.68 nM; that for `CN(C)[C@@]1(CCc2c(Cl)cccc2Cl)CCCN(c2cc(F)c(S(=O)(=O)Nc3ccncn3)c(F)c2)C1` (single isomer, unassigned) [Example 68, formate], 3140 nM.
Turning to `CN(C)[C@@]1(CCc2cccc(C(F)(F)F)c2)CCCN(c2cc(F)c(S(=O)(=O)Nc3ccncn3)c(F)c2)C1` (single isomer, unassigned) [Example 15], the IC50 came to 288 nM.
The result for `CN(CCO)[C@]1(CCc2cccc(C(F)(F)F)c2)CCCN(c2cc(F)c(S(=O)(=O)Nc3ccncn3)c(F)c2)C1` (single isomer, unassigned) [Example 61] reads 2.14 nM.
For `Cc1cc(N2CCC[C@](CCc3cccc(C(F)(F)F)c3)(N(C)C)C2)cc(Cl)c1S(=O)(=O)Nc1ccncn1` (single isomer, unassigned) [Example 66, formate] the value was 501 nM.
With `CN[C@]1(CCc2cccc(C(F)(F)F)c2)CCCN(c2ccc(S(=O)(=O)Nc3ccncn3)c(F)c2)C1` [Example 3, (R)-2-Fluoro-4-(3-(methylamino)-3-(3-(trifluoromethyl)-phenethyl)piperidin-1-yl)-N-(pyrimidin-4-yl)benzenesulfonamide], the IC50 came to 21.5 nM.
On to `CN(C)[C@@]1(CCc2cccc(C(F)(F)F)c2)CCCN(c2ccc(S(=O)(=O)Nc3ccncn3)c(Cl)c2)C1` (single isomer, unassigned) [Example 70], for which the IC50 was determined as 4.24 nM.
Turning to `CN(C)[C@@]1(CCc2cccc(C(F)(F)F)c2)CCCN(c2cc(F)c(S(=O)(=O)Nc3ncccn3)c(F)c2)C1` (single isomer, unassigned) [Example 52], the IC50 was determined as 569 nM.
Consider `CN(C)[C@]1(CCc2cccc(C(F)(F)F)c2)CN(c2cc(F)c(S(=O)(=O)Nc3ccncn3)c(F)c2)CC[C@@H]1O` (single isomer, unassigned) [Example 76, formate], for which the IC50 was determined as 30.8 nM.
On to `CN1CC(CN(C)[C@@]2(CCc3cccc(C(F)(F)F)c3)CCCN(c3ccc(S(=O)(=O)Nc4ccncn4)c(F)c3)C2)C1` (single isomer, unassigned) [Example 29], for which the concentration for half-maximal inhibition (IC50) was determined as 2.66 nM.
Regarding `CN1CCC(N(C)[C@]2(CCc3cccc(C(F)(F)F)c3)CCCN(c3ccc(S(=O)(=O)Nc4ccncn4)c(F)c3)C2)CC1` (single isomer, unassigned) [Example 37, formate], the IC50 was 7.22 nM.
Consider `CN(C)[C@]1(CCc2ccc(C(F)(F)F)cc2)CCCN(c2ccc(S(=O)(=O)Nc3ccncn3)c(F)c2)C1` (single isomer, unassigned) [Example 8], for which the IC50 is 2070 nM.
With `O=S(=O)(Nc1ccncn1)c1ccc(N2CCC[C@@](CCc3cccc(C(F)(F)F)c3)(N3CCCC3)C2)cc1F` (single isomer, unassigned) [Example 24], the IC50 was found to be 439 nM.
Turning to `CN(C)[C@]1(CCc2ccc(Cl)c(C(F)(F)F)c2)CCCN(c2cc(F)c(S(=O)(=O)Nc3ccncn3)c(F)c2)C1` (single isomer, unassigned) [Example 55, formate], the IC50 worked out at 0.879 nM.
Take `CN(C)[C@@]1(CCc2cccc(C(F)(F)F)c2)CCCN(c2cc(F)c(S(=O)(=O)Nc3ccon3)c(F)c2)C1` (single isomer, unassigned) [Example 58]: the IC50 stood at 10000 nM.
For the compound `CN1CC[C@H](N(C)[C@@]2(CCc3cccc(C(F)(F)F)c3)CCCN(c3cc(F)c(S(=O)(=O)Nc4ccncn4)c(F)c3)C2)C1` (single isomer, unassigned) [Example 45], the IC50 worked out at 1.69 nM.
As for `CN(C)[C@@]1(CCc2cccc(C(F)(F)F)c2)CCCN(c2ccc(S(=O)(=O)Nc3nccs3)c(F)c2)C1` (single isomer, unassigned) [Example 13], the IC50 was determined as 1.53 nM.
As for `O=S(=O)(Nc1ccncn1)c1ccc(N2CCC[C@@](CCc3cccc(C(F)(F)F)c3)(N3CCC3)C2)cc1F` (single isomer, unassigned) [Example 22], the IC50 worked out at 84.4 nM.
As to `CN(C)[C@]1(CCc2cccc(C(F)(F)F)c2)CCCN(c2ccc(S(=O)(=O)Nc3ccncn3)c(F)c2)C1` (single isomer, unassigned) [Example 1], the IC50 stood at 6.88 nM.
With `CN(C)[C@@]1(CCc2cccc(C(F)(F)F)c2Cl)CCCN(c2cc(F)c(S(=O)(=O)Nc3ccncn3)c(F)c2)C1` [Example 40, (S)-4-(3-(2-Chloro-3-(trifluoromethyl)phenethyl)-3-(dimethylamino)piperidin-1-yl)-2,6-difluoro-N-(pyrimidin-4-yl)benzenesulfonamide], the IC50 was 531 nM.
As for `CN1CC[C@@H](N(C)[C@@]2(CCc3cccc(C(F)(F)F)c3)CCCN(c3cc(F)c(S(=O)(=O)Nc4ccncn4)c(F)c3)C2)C1` (single isomer, unassigned) [Example 44], the IC50 is 195 nM.
For `CN(C)[C@@]1(C[C@H]2CCc3ccc(C(F)(F)F)cc32)CCCN(c2cc(F)c(S(=O)(=O)Nc3ccncn3)c(F)c2)C1` [Example 47, 4-((R)-3-(Dimethylamino)-3-(((R)-6-(trifluoromethyl)-2,3-dihydro-1H-inden-1-yl)methyl)piperidin-1-yl)-2,6-difluoro-N-(pyrimidin-4-yl)benzenesulfonamide formate] the value was 307 nM.
For `CN([C@@H]1CCOC1)[C@@]1(CCc2cccc(C(F)(F)F)c2)CCCN(c2cc(F)c(S(=O)(=O)Nc3ccncn3)c(F)c2)C1` (single isomer, unassigned) [Example 82] the value was 657 nM.
In the case of `CN(C)[C@]1(CCc2cccc(C(F)(F)F)c2)CN(c2cc(F)c(S(=O)(=O)Nc3ccncn3)c(F)c2)CC[C@H]1O` (single isomer, unassigned) [Example 74, formate], the half-maximal inhibitory concentration (IC50) was determined as 1010 nM.
In the case of `CN(C)[C@@]1(CCc2cccc(C(F)(F)F)c2)CN(c2cc(F)c(S(=O)(=O)Nc3ccncn3)c(F)c2)CC[C@H]1O` (single isomer, unassigned) [Example 77, formate], the IC50 turned out to be 2.55 nM.
Turning to `CN(C)[C@]1(CCc2cccc(C(F)(F)F)c2)CCCN(c2cc(Cl)c(S(=O)(=O)Nc3ccncn3)c(Cl)c2)C1` (single isomer, unassigned) [Example 65], the IC50 came out at 69.4 nM.
Consider `CN(C)[C@@]1(CCc2cccc(C(F)(F)F)c2)CCCN(c2cc(Cl)c(S(=O)(=O)Nc3ccncn3)c(Cl)c2)C1` (single isomer, unassigned) [Example 64], for which the IC50 was 1.54 nM.
Take `CN(C)[C@]1(CCc2ccc(C3CC3)c(C(F)(F)F)c2)CCCN(c2cc(F)c(S(=O)(=O)Nc3ccncn3)c(F)c2)C1` (single isomer, unassigned) [Example 87]: the IC50 was 682 nM.
As for `CN(C)C1(C2CC(c3cccc(C(F)(F)F)c3)C2)CCCN(c2cc(F)c(S(=O)(=O)Nc3ccncn3)c(F)c2)C1` (stereo not shown) [Example 95, 4-(3-(Dimethylamino)-3-(3-(3-(trifluoromethyl)phenyl)-cyclobutyl)piperidin-1-yl)-2,6-difluoro-N-(pyrimidin-4-yl)benzenesulfonamide], the IC50 was determined as 14.1 nM.
Take `CN(C)[C@]1(C[C@H]2CCc3ccc(C(F)(F)F)cc32)CCCN(c2cc(F)c(S(=O)(=O)Nc3ccncn3)c(F)c2)C1` [Example 48, 4-((S)-3-(Dimethylamino)-3-(((R)-6-(trifluoromethyl)-2,3-dihydro-1H-inden-1-yl)methyl)piperidin-1-yl)-2,6-difluoro-N-(pyrimidin-4-yl)benzenesulfonamide formate]: the IC50 amounted to 1.55 nM.
The result for `Cc1ccc(CC[C@]2(N(C)C)CCCN(c3cc(F)c(S(=O)(=O)Nc4ccncn4)c(F)c3)C2)cc1C(F)(F)F` (single isomer, unassigned) [Example 84, formate] reads 2.84 nM; that for `O=S(=O)(Nc1ccncn1)c1ccc(N2CCC[C@](CCc3cccc(C(F)(F)F)c3)(N3CCC3)C2)cc1F` (single isomer, unassigned) [Example 21], 3180 nM.
